Molecules are shown by their SMILES. “Also recorded” adds a separate entry of the source. Where a SMILES comes first, the peptide text is derived from it. The star is where a group is joined. Cbz = O=C(OCc1ccccc1)*

The text below walks through data of patent publication US11137400B2, “Methods for predicting and determining responsiveness to activators of JNK kinase” (UNIVERSITY OF PITTSBURGH-OF THE COMMONWEALTH SYSTEM OF …, priority 2017, dated 2021).

For assay [1], the system named is p-JNKs. Description: ER stress time course in HEK293T cells, Western blot of phosphorylated JNKs. The format is cell-based, human. As to conditions: 30-minute treatment. Here is the method:
(§1) hXBP1s plays an essential role in regulating BMSC support of MM cell growth. […] To test this hypothesis, the time-dependent protein expression patterns of hXBP1s and phosphorylated JNKs (p-JNKs) was determined in cells that were challenged with either a persistent or transient ER stress, induced by either thapsigargin (Thg) or dithiothrietol (DTT), respectively. […] The protein level of hXBP1s started to decline at 6-hrs, and the reduction continued till 12-hr, the end of Thg treatment. In contrast, Thg induced the phosphorylation of JNKs from 6 to 12-hrs of Thg treatment. This activation of JNKs coincided with the decrease in hXBP1s protein levels within the same time frame of Thg treatment (FIG. 1A).
DTT is a reducing agent that disrupts oxidative protein folding in the ER. Since the effects of DTT are rapidly reversible, and DTT can be readily removed by washing, it was used to mimic intermittent ER stress on cells. […]
(§2) Total cell lysates were prepared with RIPA buffer containing protease inhibitor cocktail and phosphatase inhibitor cocktails I/II (Sigma-Aldrich). After centrifugation, total cell lysates then were separated by 10% sodium dodecyl sulfate polyacrylamide gel electrophoresis and analyzed by immunoblot analysis as described previously. Signals were detected with ECL reagents (GE Healthcare Life Sciences). […]

Assay [2] deals with hXBP1s. Description: ER stress time course in HEK293T cells, Western blot of hXBP1s. The class given is cell-based, human. The procedure:
as §1
DTT is a reducing agent that disrupts oxidative protein folding in the ER. Since the effects of DTT are rapidly reversible, and DTT can be readily removed by washing, it was used to mimic intermittent ER stress on cells. HEK293T cells were treated with DTT for 30 minutes, then DTT was washed away, and the cells were harvested at various time points after DTT removal. […] In addition, the cells recovered and further increased hXBP is protein expression at 2- and 5-hr post DTT removal. This process coincided with a drastic reduction in JNKs' phosphorylation (FIG. 1B).
(§3) Total cell lysates were prepared with RIPA buffer containing protease inhibitor cocktail and phosphatase inhibitor cocktails I/II (Sigma-Aldrich). After centrifugation, total cell lysates then were separated by 10% sodium dodecyl sulfate polyacrylamide gel electrophoresis and analyzed by immunoblot analysis as described previously. Signals were detected with ECL reagents (GE Healthcare Life Sciences). Semi-quantification of data was performed using Image J. For immunoprecipitation assay, Cells were washed with ice-cold PBS and lysed with lysis buffer (50 mM Tris-HCl, pH 7.5; 150 mM NaCl, 0.1% (wt/vol) Nondiet P40, 1 mM Ethylenediaminetetraacetic acid (EDTA); […]; protease inhibitor cocktail and phosphatase inhibitor cocktails I/II (Sigma-Aldrich). After overnight incubation with Anti-HA-agarose beads (Roche) or anti-hXBP1s antibody at 4° C. on a rotator, following by addition of Protein G Agarose to the reaction containing anti-hXBP1s antibody for 2 h at 4° C. Immunoprecipitates were washed three times with cold lysis buffer and boiled for 5 min in 2× Laemmli buffer for elution of immunoprecipitated HA-hXBP1s or Flag-hXBP1s complex. Samples were resolved in SDS-PAGE (Bio-Rad) and immunoblotted with corresponding antibody.

The subject of assay [3] is FLAG-hXBP1s. Description: Western blot of FLAG-hXBP1s in HEK293T cells co-transfected with MYC-β-TrCP and MKK7-JNKs. The class given is cell-based, human. As to conditions: pretreatment of HEK293T cells.
Excerpt: Since JNKs repress hXBP1s protein expression, it was hypothesized that JNKs promote its β-TrCP binding and consequent degradation via the UPS-26S proteasome machinery. […] To determine the functional consequence of JNKs' potentiation of the physical interactions between MYC-β-TrCP and HA-hXBP1s. FLAG-XBP1s was overexpressed with a small/moderate amount of MYC-β-TrCP either in the presence or absence of MKK7-JNKs. […] Further, JNKs and MYC-β-TrCP's inhibition of FLAG-hXBP1s was abolished by pretreatment of cells with MG 132 (FIG. 2G). Consistent with the latter observation. […] Taking these observations together, it was concluded that JNKs promote the physical interactions between hXBP1s and D-TrCP, leading to the ubiquitination and consequent protein degradation of hXBP1s that results in a decrease in the steady-state levels of hXBP1s.
as §2

For assay [4], the system named is FLAG-hXBP1s. Description: Western blot of FLAG-hXBP1s (WT or S288A) in stably overexpressing KM101 cells. The format is cell-based, human. The note with it: for effect of pretreatment on anisomycin-induced repression of FLAG-hXBP1s protein level: then stimulated with anisomycin; for effect on steady-state protein level of hXBP1s S288A mutant: S288A mutant expressing KM101 cells. Here is the method:
as §3
On the technique in general: In western blotting, separated proteins are transferred to a membrane and probed.

Assay [5] concerns hXBP1s. Description: Western blot of steady-state hXBP1s protein (endogenous and overexpressed) in HEK293T and KM101 cells. The class given is cell-based, human. Here is the method: as §3
For assay [6], the system named is hXbp1s mRNA. Description: Real-time PCR of hXbp1s mRNA in FLAG-hXBP1s-overexpressing KM101 cells. The class given is cell-based, human. Here is the method:
Real-time PCR was performed as described previously. B-Actin was used as an internal control.
Background: In qPCR the cycle at which signal appears reflects the starting amount.

Assay [7] deals with HA-hXBP1s / MYC-β-TrCP binding. Description: Co-immunoprecipitation of HA-hXBP1s with MYC-β-TrCP in HEK293T cells. The class given is cell-based, human. The note with it: 10 nM JNKi for 4 hrs (FIG. 2F). Here is the method:
as §3

For assay [8], the system named is VCAM-1. Description: TNFα-induced VCAM-1 protein expression in KM101 cells, Western blot. The class given is cell-based, human. The note with it: for TNFα-induced VCAM-1 protein expression: KM101 cells expressing (WT) hXBP1s. The procedure: as §3
The subject of assay [9] is 5-TGM cells. Description: Adhesion of 5-TGM cells to TNFα-treated KM101 cells. The class given is cell-based, mouse. Here is the method: Human kidney […], human BM stromal cell lines KM101 cells, mouse MM cell line 5-TGM1, human MM cell lines ANBL-6 and MM1.S were cultured as described. Mouse macrophage cell line RAW264.7 were cultured in DMEM supplemented with 10% FBS. Isolation of primary hBMSCs was performed as described. These studies were approved by the University of Pittsburgh institutional review board and by the VA Pittsburgh Healthcare System institutional animal care and use committee. MM cell growth assay, cell adhesion assays, OCL formation assay were performed as described (Xu et al., Blood, 119:4205-4214 (2012)).

Assay [10] concerns IL-6. Description: TNFα-induced IL-6 production in KM101 cells, ELISA. The class given is cell-based, human. Here is the method: To determine hIL-6 secretion by BMSCs, supernatants from cell cultures were collected and analyzed with hIL-6 ELISA read-set go kits (eBioscience) according to the manufacturer's instructions, the mice's serum concentration of IgG2b, RANKL, IL-6 and CTX-I were measured with their respectively ELISA kit (Quidel, Roche, Roche and MyBioSource).
(In general: In an ELISA, binding on a coated surface is turned into a signal by an enzyme label.)

In the case of `O[C@H](CS)[C@H](O)CS` (racemic) [DTT, dithiothreitol], the “phosphorylation of JNKs” value in [1] is “strongly induced”. For the same compound, in assay [2] (30-minute treatment), the “basal hXBP1s protein expression” value is on record as “quickly diminished”.
As to `CC(C)C[C@@H](C=O)NC(=O)[C@H](CC(C)C)NC(=O)[C@H](CC(C)C)NC(=O)OCc1ccccc1` [MG132] (Cbz-Leu-Leu-Leu-aldehyde), the “JNKs and MYC-β-TrCP's inhibition of FLAG-hXBP1s” value in [3] is given as “abolished”. For the same compound, in assay [4] (KM101 cells), the “discrepancy in protein expression of S288A mutant and WT hXBP1s” value is “abolished”; the “effect of pretreatment on anisomycin-induced repression of FLAG-hXBP1s protein level” value was “completely blocked”. For the same compound, the “steady-state level of both endogenous and overexpressed hXBP1s” value in [5] is “promptly and greatly elevated”.
On to `CCOc1nc(NC(=O)Cc2cc(OC)ccc2OC)cc(N)c1C#N` [JNKi VIII], for which the “mRNA expression of hXbp1s” value in assay [6] is “no effect”. In addition, in assay [4] (KM101 cells), the “steady-state protein level of overexpressed (WT) FLAG-hXBP1s” value is on record as “dose-dependent up-regulation” and the “effect of pretreatment on anisomycin-induced repression of FLAG-hXBP1s protein level” value is given as “largely prevented”. Moreover, the “steady-state protein level of overexpressed (WT) FLAG-hXBP1s” value in assay [4] (KM101 cells, listed as JNKi) is reported as “dose-dependently increased”. Besides, the “effect on steady-state protein level of hXBP1s S288A mutant” value in assay [4] is “completely abolished”. For the same compound, the “basal level binding of HA-hXBP1s with MYC-β-TrCP” value in assay [7] is “abolished”. Also, the “TNFα-induced VCAM-1 protein expression” value in [8] is recorded as “potentiated”. In addition, the “ANS inhibition of TNFα-induced VCAM-1 expression in presence of the substance” value in [8] (KM101 cells, with ANS) is recorded as “compromised”. Moreover, the “TNFα-induced stromal support of adhesion of 5-TGM cells” value in assay [9] is listed as “potentiated”. Besides, the “TNFα-induced stromal production of IL-6” value in assay [10] is listed as “potentiated”.
On to `O=S(=O)(N=Cc1c(O)ccc2ccccc12)c1cccs1` [STF-083010], for which, in assay [8], the “TNFα-induced VCAM-1 protein expression” value is on record as “repressed”. Further, the “JNKi's promotion of TNFα-induced stromal induction of VCAM-1” value in [8] (KM101 cells, with JNKi) is “compromised”. The “TNFα-induced stromal support of adhesion of 5-TGM cells” value in assay [9] is on record as “repressed”. The “JNKi's promotion of stromal support to 5-TGM cells' adhesion” value in [9] (with JNKi) is given as “compromised”. For the same compound, the “TNFα-induced stromal production of IL-6” value in assay [10] is listed as “repressed”. Further, the “JNKi's promotion of stromal production of IL-6” value in assay [10] (with JNKi) is “compromised”.
On to `C/C=C(/C)C(=O)O[C@H]1C(C)=C2[C@H]([C@@H]1OC(=O)CCCCCCC)[C@@](C)(OC(C)=O)C[C@H](OC(=O)CCC)[C@@]1(O)[C@H]2OC(=O)[C@@]1(C)O` [Thg, thapsigargin], for which, in assay [2], the “time at which endogenous hXBP1s peaked” value turned out to be 4 h and the “time at which up-regulation of endogenous hXBP1s was first detected” value is 2 h. Further, in [2] (reduction continued till 12-hr), the “time at which hXBP1s protein level started to decline” value is 6 h. The “protein expression of endogenous hXBP1s during persistent ER stress” value in [2] (treatment up to 12-hr) is “time-dependent up-regulation”.
Take `COc1ccc(C[C@H]2NC[C@H](O)[C@H]2OC(C)=O)cc1` [anisomycin]: the “mRNA expression of hXbp1s” value in assay [6] is listed as “no effect”. For the same compound, the “steady-state protein level of overexpressed (WT) FLAG-hXBP1s” value in [4] (KM101 cells) is recorded as “drastically decreased; also recorded: greatly reduced”. The “effect on steady-state protein level of hXBP1s S288A mutant” value in assay [4] is “completely lost its inhibitory effect”. Also, the “TNFα-induced VCAM-1 protein expression” value in [8] (listed as ANS) was “dose-dependently repressed; also recorded: dose-dependently blocked”. For the same compound, in assay [8] (S288A mutant-overexpressing KM101 cells), the “inhibitory effect on TNFα-induced VCAM-1 protein expression in S288A mutant cells” value is “largely abolished”.
